Assay results as given in US20240325330A1, “NEW METHOD TO TREAT ACIDOSIS RELATED DISEASES WITH ACETOACETATE” (INSTITUT NATIONAL DE LA SANTÉ ET DE LA RECHERCHE MÉDICALE, priority 2021, published 2024).

Columns and labels:
[1] = system: day 3 LA-Mφ (human macrophages under lactic acidosis); test: Survival of LA-Mφ with autophagy inhibitors; type: cell-based; details: added to day 3 LA-Mφ; data not shown
Protocol: (§1) Peripheral blood mononuclear cells (PBMC) were obtained from healthy human volunteers (Blood collection center, Angers, France; agreement ANG-2017-01) by standard density-gradient centrifugation on lymphocyte separation medium (Eurobio, Courtaboeuf, France). CD14+ monocytes were then isolated by positive magnetic cell-sorting (Miltenyi Biotec, Bergisch Gladbach, Germany). Monocytes (1×10^6 cells/mL) were cultured in complete medium (CM) consisting of RPMI 1640 (Lonza, Verviers, Belgium) supplemented with 10% fetal calf serum (FCS) (Eurobio), 2 mM L-glutamine, 1 mM sodium pyruvate, 0.1 mM non-essential amino acids, 10 mM HEPES, 100 U/mL penicillin and 100 μg/mL streptomycin (all from Lonza) in the presence of 50 ng/mL GM-CSF (R&D Systems, Minneapolis, MN).
(§2) Experiments were performed in the presence of 10 mM lactic acid (Sigma-Aldrich, St Louis, MO) resulting in a pHe of 6.5 to generate LA-Mφ (lactic acidosis conditioning), 12.35 mM HCl to reach a final pHe of 6.5 and to generate HCl-Mφ(acidosis conditioning), 10 mM sodium lactate (Sigma-Aldrich) to generate lactate-Mφ (lactosis conditioning, pH 7.3), in the absence or presence of 5 mM lithium acetoacetate (AcAc) (Sigma-Aldrich, St Louis, MO).

[2] = system: Mφ (human monocytes cultured with GM-CSF); test: Toxicity of lactic acid for macrophages; type: cell-based; details: pH=6.5; data not shown
Protocol: as §1, §2

Compound	survival of LA-Mφ [1]	maximum non-toxic concentration for Mφ [2]
CO/C1=C\C(C)=C\[C@@H](C)[C@@H](O)[C@@H](C)C/C(C)=C/C=C/[C@H](OC)[C@@H]([C@@H](C)[C@@H](O)[C@H](C)[C@@]2(O)C[C@@H](O)[C@H](C)[C@@H](C(C)C)O2)OC1=O [BafA1, bafilomycin A1]	significantly decreased their survival	
CC(O)C(=O)O (stereo not drawn) [LA, lactic acid]		10 mM
CC[C@@H](C(=O)[C@@H](C)[C@@H](O)[C@H](C)[C@@H]1O[C@@H]([C@@H](CC)C(=O)O)CC[C@@H]1C)[C@H]1O[C@]2(C=C[C@@H](O)[C@]3(CC[C@@](C)([C@H]4CC[C@](O)(CC)[C@H](C)O4)O3)O2)[C@H](C)C[C@@H]1C [salinomycin]	significantly decreased their survival	
